Patent US8148388B2, “2,4 (4,6) pyrimidine derivatives” (Janssen Pharmaceutica, N.V., priority 2004, dated 2012)
Read-outs that look alike come from different tables or passages of the source.

Tests used:
[1] = amide bond, DMF, 25.0 °C
CSK (h) = CSK (h) (Homo sapiens, UniProt P41240); test: CSK human kinase assay (glass-fiber filter); format: biochemical; conditions: test concentration of 10^−6M; read-out: C2 score (inhibition of CSK human)
Method: In the glass-fiber filter technology the activity of the kinase of interest is measured using an appropriate substrate that is incubated with the aforementioned kinase protein in the presence of (^33P) radiolabeled ATP. (^33P) Phosphorylation of the substrate is subsequently measured as radioactivity bound on a glass fiber-filter.
All kinases are pre-diluted to a 10× working concentration prior to addition into the assay. The composition of the dilution buffer for each kinase is detailed below.
In a final reaction volume of 25 μl, CSK (h) (5-10 mU) is incubated with 50 mM Tris pH 7.5, 0.1 mM EGTA, 0.1 mM Na3VO4, 0.1% β-mercaptoethanol, 0.1 mg/ml poly(Glu, Tyr) 4:1, 10 mM MnCl2, 10 mM MgAcetate and [γ-^33P-ATP] (specific activity approx. 500 cpm/pmol, concentration as required). The reaction is initiated by the addition of the MgATP mix. After incubation for 40 minutes at room temperature, the reaction is stopped by the addition of 5 μl of a 3% phosphoric acid solution. 10 μl of the reaction is then spotted onto a Filtermat A and washed three times for 5 minutes in 75 mM phosphoric acid and once in methanol prior to drying and scintillation counting.

cSRC (h) = cSRC (h) (Homo sapiens, UniProt P12931); test: cSRC human kinase assay (glass-fiber filter); format: biochemical; conditions: test concentration of 10^−6M; read-out: C3 score (inhibition of cSRC human)
In short: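 Radiometric assay: kinase and substrate are incubated with [33P]ATP, with the reaction started by MgATP mix. The reaction is spotted on P30 filtermat, washed in 75 mM phosphoric acid and methanol, and the bound 33P is measured by scintillation counting.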

Fes (h) = Fes (h) (Homo sapiens, UniProt P07332); test: Fes human kinase assay (glass-fiber filter); format: biochemical; conditions: test concentration of 10^−6M; read-out: C4 score (inhibition of Fes human)
In short: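 Human Fes (5–10 mU) was incubated with 0.1 mg/ml poly(Glu,Tyr) 4:1 in 8 mM MOPS pH 7.0, 0.2 mM EDTA, 10 mM Mg acetate and [γ-33P]ATP for 40 min at room temperature. The reaction was stopped with phosphoric acid, and substrate phosphorylation was quantified by filter binding and scintillation counting.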

Flt3 (h) = Flt3 (h) (Homo sapiens, UniProt P36888); test: Flt3 human kinase assay (glass-fiber filter); format: biochemical; conditions: test concentration of 10^−6M; read-out: C6 score (inhibition of Flt3 human)
In short: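 Human Flt3 (5-10 mU) with 50 μM peptide substrate in 8 mM MOPS pH 7.0, 0.2 mM EDTA, 10 mM Mg acetate and [γ-33P]ATP (concentration as required), 40 min at room temperature. Reaction stopped with phosphoric acid; substrate 33P incorporation counted on P30 glass-fiber filter.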

Fms (h) = Fms (h) (Homo sapiens, UniProt P07333); test: Fms human kinase assay (glass-fiber filter); format: biochemical; conditions: test concentration of 10^−6M; read-out: C7 score (inhibition of Fms human)
In short: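 Radiometric filter-binding assay: Fms (5-10 mU) with 250 μM peptide substrate and [γ-33P]ATP in 8 mM MOPS pH 7.0, 10 mM Mg acetate, 40 min at room temperature. Reaction stopped with phosphoric acid; substrate-bound 33P counted on P30 filtermat.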

Lck (h) = Lck (h) (Homo sapiens, UniProt P06239); test: Lck human kinase assay (glass-fiber filter); format: biochemical; conditions: test concentration of 10^−6M; read-out: C9 score (inhibition of Lck human)
In short: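 Kinase activity measured as transfer of (^33P) from radiolabeled MgATP to substrate, captured on P30 glass-fiber filtermat, washed in 75 mM phosphoric acid and methanol, then scintillation counted.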

Yes (h) = Yes (h) (Homo sapiens, UniProt P07947); test: Yes human kinase assay (glass-fiber filter); format: biochemical; conditions: test concentration of 10^−6M; read-out: C11 score (inhibition of Yes human)
In short: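 Yes (h) (5-10 mU) with 0.1 mg/ml poly(Glu, Tyr) 4:1 in 8 mM MOPS pH 7.0, 0.2 mM EDTA, 10 mM MgAcetate and [γ-^33P-ATP], 40 minutes at room temperature. Stopped with phosphoric acid; substrate-bound ^33P counted on glass-fiber filter by scintillation.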

Abl (h) = Abl (h) (Homo sapiens, UniProt P00519); test: Abl human kinase assay (glass-fiber filter); format: biochemical; conditions: test concentration of 10^−6M; read-out: C1 score (inhibition of Abl human)
EGFR (h) = EGFR (h) (Homo sapiens, UniProt P00533); test: EGFR human kinase assay (glass-fiber filter); format: biochemical; conditions: test concentration of 10^−6M; read-out: C4 score (inhibition of EGFR human)
In short: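 Human EGFR (5-10 mU) phosphorylated 0.1 mg/ml poly(Glu, Tyr) 4:1 in 8 mM MOPS pH 7.0, 0.2 mM EDTA, 10 mM MnCl2, 10 mM MgAcetate with [γ-33P]ATP at unspecified concentration. Incubation lasted 40 minutes at room temperature, was stopped with phosphoric acid, and filter-bound 33P was counted by scintillation.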

Lyn (h) = Lyn (h) (Homo sapiens, UniProt P07948); test: Lyn human kinase assay (glass-fiber filter); format: biochemical; conditions: test concentration of 10^−6M; read-out: C10 score (inhibition of Lyn human)
In short: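 Human Lyn (5-10 mU) phosphorylating poly(Glu,Tyr) 4:1 at 0.1 mg/ml with [γ-33P]ATP (concentration as required) in 50 mM Tris pH 7.5, 10 mM Mg acetate, 40 min at room temperature. Stopped with phosphoric acid; substrate-bound radioactivity counted on glass-fibre filter.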

Fms (h), sequence (P07333 20-972): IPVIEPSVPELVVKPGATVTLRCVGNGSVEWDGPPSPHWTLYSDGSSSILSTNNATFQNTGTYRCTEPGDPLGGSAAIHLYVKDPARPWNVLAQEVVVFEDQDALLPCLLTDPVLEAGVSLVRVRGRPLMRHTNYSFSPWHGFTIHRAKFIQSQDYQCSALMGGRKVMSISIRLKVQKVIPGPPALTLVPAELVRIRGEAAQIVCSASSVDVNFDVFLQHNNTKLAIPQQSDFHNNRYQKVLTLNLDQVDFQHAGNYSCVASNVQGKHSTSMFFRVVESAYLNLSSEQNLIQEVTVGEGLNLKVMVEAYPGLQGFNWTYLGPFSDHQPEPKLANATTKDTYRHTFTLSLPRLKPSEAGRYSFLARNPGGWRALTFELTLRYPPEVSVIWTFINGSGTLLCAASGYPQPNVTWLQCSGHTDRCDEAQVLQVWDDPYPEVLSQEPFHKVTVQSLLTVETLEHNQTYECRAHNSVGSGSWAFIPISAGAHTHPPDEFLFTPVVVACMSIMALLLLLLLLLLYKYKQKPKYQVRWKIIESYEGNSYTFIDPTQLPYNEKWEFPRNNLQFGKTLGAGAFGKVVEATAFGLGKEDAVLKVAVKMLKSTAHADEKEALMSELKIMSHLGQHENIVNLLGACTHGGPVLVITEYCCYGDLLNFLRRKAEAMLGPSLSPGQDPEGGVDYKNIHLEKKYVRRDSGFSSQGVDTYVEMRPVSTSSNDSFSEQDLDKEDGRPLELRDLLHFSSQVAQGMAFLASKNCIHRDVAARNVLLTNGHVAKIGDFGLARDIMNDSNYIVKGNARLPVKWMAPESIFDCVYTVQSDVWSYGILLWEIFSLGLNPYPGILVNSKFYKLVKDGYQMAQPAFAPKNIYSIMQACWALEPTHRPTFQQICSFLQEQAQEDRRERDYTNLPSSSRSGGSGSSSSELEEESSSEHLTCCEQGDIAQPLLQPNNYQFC
Yes (h), sequence (P07947 whole entry): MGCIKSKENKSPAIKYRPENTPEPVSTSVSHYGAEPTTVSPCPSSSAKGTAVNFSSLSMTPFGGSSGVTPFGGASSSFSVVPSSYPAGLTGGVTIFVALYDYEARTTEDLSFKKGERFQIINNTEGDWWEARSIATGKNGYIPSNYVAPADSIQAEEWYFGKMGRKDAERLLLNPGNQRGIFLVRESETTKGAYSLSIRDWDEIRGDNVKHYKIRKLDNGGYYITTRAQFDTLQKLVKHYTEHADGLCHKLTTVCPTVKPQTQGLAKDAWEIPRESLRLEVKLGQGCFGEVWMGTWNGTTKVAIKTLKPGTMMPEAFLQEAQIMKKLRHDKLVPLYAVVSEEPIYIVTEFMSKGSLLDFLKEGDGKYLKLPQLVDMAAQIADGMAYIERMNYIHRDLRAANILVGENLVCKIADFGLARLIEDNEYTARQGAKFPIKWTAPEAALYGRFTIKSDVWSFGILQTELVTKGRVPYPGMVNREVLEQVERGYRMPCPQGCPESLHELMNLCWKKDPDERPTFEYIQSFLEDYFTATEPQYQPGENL
EGFR (h), sequence (P00533 25-1210): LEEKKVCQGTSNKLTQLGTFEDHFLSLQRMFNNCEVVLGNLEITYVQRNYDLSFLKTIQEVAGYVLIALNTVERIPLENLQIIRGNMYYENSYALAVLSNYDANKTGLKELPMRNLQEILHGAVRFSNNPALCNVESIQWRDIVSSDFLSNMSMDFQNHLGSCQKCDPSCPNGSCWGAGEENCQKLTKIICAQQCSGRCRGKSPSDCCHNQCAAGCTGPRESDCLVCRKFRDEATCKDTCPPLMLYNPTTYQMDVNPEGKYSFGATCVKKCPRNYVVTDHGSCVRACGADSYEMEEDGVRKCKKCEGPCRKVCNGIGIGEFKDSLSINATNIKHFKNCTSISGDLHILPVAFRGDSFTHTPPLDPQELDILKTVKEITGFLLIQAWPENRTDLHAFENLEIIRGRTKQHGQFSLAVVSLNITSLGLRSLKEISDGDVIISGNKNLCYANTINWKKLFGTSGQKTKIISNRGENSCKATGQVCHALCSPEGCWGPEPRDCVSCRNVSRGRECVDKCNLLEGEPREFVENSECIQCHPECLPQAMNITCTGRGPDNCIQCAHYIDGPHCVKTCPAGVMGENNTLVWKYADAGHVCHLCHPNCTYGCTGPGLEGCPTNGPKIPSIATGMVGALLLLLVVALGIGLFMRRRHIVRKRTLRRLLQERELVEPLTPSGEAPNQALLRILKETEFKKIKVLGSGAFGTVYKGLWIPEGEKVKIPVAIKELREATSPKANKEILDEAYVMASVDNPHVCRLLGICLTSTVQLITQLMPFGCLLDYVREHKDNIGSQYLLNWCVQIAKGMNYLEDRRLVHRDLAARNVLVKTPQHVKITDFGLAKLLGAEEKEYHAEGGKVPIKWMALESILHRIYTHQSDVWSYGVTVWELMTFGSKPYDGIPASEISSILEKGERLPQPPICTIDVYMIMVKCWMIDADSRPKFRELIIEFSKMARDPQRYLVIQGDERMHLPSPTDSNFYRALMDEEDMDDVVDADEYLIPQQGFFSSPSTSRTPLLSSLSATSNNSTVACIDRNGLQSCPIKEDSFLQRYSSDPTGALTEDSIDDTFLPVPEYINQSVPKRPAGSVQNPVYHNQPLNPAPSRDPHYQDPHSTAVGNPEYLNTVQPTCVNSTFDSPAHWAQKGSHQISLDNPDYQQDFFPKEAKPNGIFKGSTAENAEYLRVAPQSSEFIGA
Lyn (h), sequence (P07948 whole entry): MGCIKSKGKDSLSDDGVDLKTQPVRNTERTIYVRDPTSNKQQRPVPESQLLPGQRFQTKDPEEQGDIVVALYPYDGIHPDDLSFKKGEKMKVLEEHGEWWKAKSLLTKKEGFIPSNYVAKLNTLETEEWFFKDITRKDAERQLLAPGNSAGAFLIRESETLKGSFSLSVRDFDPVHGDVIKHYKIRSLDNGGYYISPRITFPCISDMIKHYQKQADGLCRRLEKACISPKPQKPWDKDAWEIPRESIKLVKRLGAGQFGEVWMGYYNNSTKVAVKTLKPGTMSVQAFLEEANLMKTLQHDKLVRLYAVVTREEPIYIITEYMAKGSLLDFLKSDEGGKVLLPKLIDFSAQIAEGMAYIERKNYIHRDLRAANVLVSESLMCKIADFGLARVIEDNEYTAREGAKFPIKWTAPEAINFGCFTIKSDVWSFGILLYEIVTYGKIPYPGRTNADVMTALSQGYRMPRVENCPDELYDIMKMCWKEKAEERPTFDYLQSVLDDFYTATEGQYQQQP
Abl (h), sequence (P00519 whole entry): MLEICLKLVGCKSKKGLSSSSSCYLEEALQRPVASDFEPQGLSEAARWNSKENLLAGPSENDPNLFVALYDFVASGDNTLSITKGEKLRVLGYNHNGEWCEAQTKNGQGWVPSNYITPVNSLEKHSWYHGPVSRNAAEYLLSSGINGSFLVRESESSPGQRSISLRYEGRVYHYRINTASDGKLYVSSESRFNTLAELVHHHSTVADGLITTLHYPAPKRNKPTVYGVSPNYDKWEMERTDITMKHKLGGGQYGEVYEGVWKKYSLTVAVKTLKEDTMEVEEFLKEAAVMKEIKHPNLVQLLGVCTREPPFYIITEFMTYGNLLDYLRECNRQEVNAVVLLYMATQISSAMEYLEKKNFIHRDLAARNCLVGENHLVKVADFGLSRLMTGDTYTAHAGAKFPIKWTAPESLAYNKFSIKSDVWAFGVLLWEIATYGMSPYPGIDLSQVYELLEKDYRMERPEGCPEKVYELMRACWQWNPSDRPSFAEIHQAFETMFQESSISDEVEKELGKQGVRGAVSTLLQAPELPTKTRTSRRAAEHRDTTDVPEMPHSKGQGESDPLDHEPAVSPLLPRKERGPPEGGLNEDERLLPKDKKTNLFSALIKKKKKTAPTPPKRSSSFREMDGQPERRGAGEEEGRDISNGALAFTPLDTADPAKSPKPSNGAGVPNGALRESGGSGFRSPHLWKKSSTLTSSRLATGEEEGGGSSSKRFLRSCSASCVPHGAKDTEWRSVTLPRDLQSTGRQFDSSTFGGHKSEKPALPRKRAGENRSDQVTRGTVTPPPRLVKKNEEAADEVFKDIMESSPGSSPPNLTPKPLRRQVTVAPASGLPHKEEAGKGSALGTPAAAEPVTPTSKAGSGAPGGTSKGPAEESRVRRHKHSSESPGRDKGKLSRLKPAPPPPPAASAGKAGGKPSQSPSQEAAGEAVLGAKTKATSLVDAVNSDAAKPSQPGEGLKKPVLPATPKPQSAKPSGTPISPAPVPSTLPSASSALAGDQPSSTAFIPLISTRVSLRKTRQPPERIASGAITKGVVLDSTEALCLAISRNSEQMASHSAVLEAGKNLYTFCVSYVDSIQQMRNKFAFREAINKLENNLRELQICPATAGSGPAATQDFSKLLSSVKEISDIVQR
Lck (h), sequence (P06239 whole entry): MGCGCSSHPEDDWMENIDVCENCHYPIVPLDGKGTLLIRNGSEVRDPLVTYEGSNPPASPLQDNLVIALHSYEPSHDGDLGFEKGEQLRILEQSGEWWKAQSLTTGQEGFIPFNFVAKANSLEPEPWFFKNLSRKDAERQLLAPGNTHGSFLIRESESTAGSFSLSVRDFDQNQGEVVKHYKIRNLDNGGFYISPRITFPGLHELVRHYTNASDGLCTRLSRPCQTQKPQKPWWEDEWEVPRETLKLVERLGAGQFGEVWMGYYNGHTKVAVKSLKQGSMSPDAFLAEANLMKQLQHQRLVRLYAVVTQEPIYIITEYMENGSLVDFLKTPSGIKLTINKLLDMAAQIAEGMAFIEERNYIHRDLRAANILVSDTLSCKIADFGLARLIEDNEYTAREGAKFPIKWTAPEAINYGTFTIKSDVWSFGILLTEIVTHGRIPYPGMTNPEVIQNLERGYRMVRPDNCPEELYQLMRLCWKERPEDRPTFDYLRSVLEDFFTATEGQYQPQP

Row | inhibition at 1 µM (CSK (h)) | inhibition at 1 µM (cSRC (h)) | inhibition at 1 µM (Fes (h)) | inhibition at 1 µM (Flt3 (h)) | inhibition at 1 µM (Fms (h)) | inhibition at 1 µM (Lck (h)) | inhibition at 1 µM (Yes (h)) | melting point | inhibition at 1 µM (Abl (h)) | inhibition at 1 µM (EGFR (h)) | inhibition at 1 µM (Lyn (h)) | Compound | ring closure, yield of all isomers ([1]; from N#Cc1cnc(Nc2cccc(OCCN)c2)nc1Nc1cccc(C(=O)O)c1, HBTU, 4.0 mM, 17.0 h) | ring closure, yield of all isomers ([1]; from NCCCCCCNC(=O)c1cccc(Nc2cc(Nc3cccc(C(=O)O)c3)ncn2)c1, PyBOP, 3.45 mM, 1.5 h)
1 | 10 to 30% | 10 to 30% | 10 to 30% | 30 to 60% | 30 to 60% | 10 to 30% | 10 to 30% | > 260 °C | – | – | – | N#Cc1cnc2nc1Nc1cccc(c1)C(=O)NCCOc1cccc(c1)N2 [Compound 3, 18-oxa-2,4,8,15,25-pentaazatetracyclo[17.3.1.1˜3,7˜.1˜9,13˜]pentacosa-1(23),3,5,7(25),9,11,13(24),19,21-nonaene-6-carbonitrile, 14-oxo-] | 15% | –
2 | 10 to 30% | – | – | – | 30 to 60% | – | 10 to 30% | 307 °C | 10 to 30% | 10 to 30% | 10 to 30% | O=C1NCCCCCCNC(=O)c2cccc(c2)Nc2cc(ncn2)Nc2cccc1c2 [Compound 8, 2,4,6,8,15,22-hexaazatetracyclo[22.3.1.1˜3,7˜.1˜9,13˜]triaconta-1(28),3,5,7(30),9,11,13(29),24,26-nonaene-14,23-dione] | – | 33.7%
